Literature values in EP0974361A1, “METHOD OF USING ANTACID AGENT AND PHARMACEUTICAL PREPARATION CONTAINING ANTACID AGENT” (CHUGAI SEIYAKU KABUSHIKI KAISHA, priority 1996, dated 1997).
Read-outs that look alike come from different tables or passages of the source. Values belong to the compound of their own block, whether it stands above or below them.

AUC (simultaneous administration of sucralfate (Yoshida et al.)): drop
SMILES: CN/C(=N/CCSCc1nc[nH]c1C)NC#N [cimetidine]

drop in adsorption (used along with sucralfate (Giesing et al.)): 19%
SMILES: C[C@H]1O[C@@H](O[C@H]2[C@@H](O)C[C@H](O[C@H]3[C@@H](O)C[C@H](O[C@H]4CC[C@@]5(C)[C@H](CC[C@@H]6[C@@H]5C[C@@H](O)[C@]5(C)[C@@H](C7=CC(=O)OC7)CC[C@]65O)C4)O[C@@H]3C)O[C@@H]2C)C[C@H](O)[C@@H]1O [digoxin]

SMILES: CC(C)Cc1ccc(C(C)C(=O)O)cc1 (centres unmarked) [ibuprofen]
absorption (used along with sucralfate (Anaya et al.)): reduced and retarded

SMILES: CC(=O)N1CCN(c2ccc(OCC3COC(Cn4ccnc4)(c4ccc(Cl)cc4Cl)O3)cc2)CC1 (centres unmarked) [ketoconazole]
bioavailability dropped by (used along with sucralfate (Goss et al.; Maconochie et al.)): 21%

bioavailability dropped by (in vivo): 29%
SMILES: CNC(=C[N+](=O)[O-])NCCSCc1ccc(CN(C)C)o1 [ranitidine]
